Columns and labels:
[1] = system: Chinese hamster ovary (CHO) cells; test: Test of induction of chromosomal aberrations; type: cell-based; conditions: for Aberrations complex (C) / Aberrations simple (S) / Aberrations S + C: 100 metaphases
Procedure: The clastogenetic effect of rhein and of 2,6-anthraquinonedisulfonic acid, was evaluated using the test of the induction of chromosomal aberrations in cell cultures of chinese hamster ovary (CHO). In this test, the cell line was treated with the tested substances and with suitable controls, in the presence of a metabolic activation system for four hours. After that, the cell in growth exponential phase were treated with colchicine (Colcemid^R) for 90 minutes, so as to obtain a significant number of cells in metaphase and to recover them for the preparation of the chromosome suspension. As the positive standard, cyclophosphamide was used (1-5-10-12.5-25 μg/ml).
The toxicity of the tested compounds was evaluated by means of the assay of the efficiency of plating, treating the cells for four hours, then seeding them at a concentration of 200 cells/5 ml of fresh culture medium.
On the ground of the results obtained by means of this test, dosages were selected for the treatment in the test of induction of chromosomal aberrations, so as not to exceed, with the highest dosage, 50% toxicity levels.
The chromosomal aberrations were recorded describing the type of structural damage. The numeric aberrations and gaps were discarded. Metaphases showing a good chromosomal opening, a good staining and an acceptable chromosome number (20±2) were selected. For statistical evaluations of the results, the quadratic Chi test was used.

[2] = system: copper "scavenging" of superoxide anion produced by the hypoxanthine/xanthine oxidase system; test: Copper "scavenging" effect (superoxide anion from hypoxanthine/xanthine oxidase system, cytochrome C); type: biochemical
Source text: The study involves the production of superoxide anion by means of the hypoxanthine/xanthine oxidase system and the target is the reduction in cytochrome C iron content. […] Copper chelants inhibit such a "scavenging" effect.

[3] = system: superoxide anion from NADPH-dependent biological systems; conditions: Mian M. et al. 1987; cited from earlier work
elastase = conditions: from man; Raimondi 1982, Zembower 1992; cited from earlier work
cathepsin G = conditions: from man; Raimondi 1982, Zembower 1992; cited from earlier work

Question: Which “induction of chromosomal aberrations (in words)” value ([1]; doses of 100 and 200 μg/ml) does the source give for O=C(O)c1cc(O)c2c(c1)C(=O)c1cccc(O)c1C2=O [Rhein, rhein] here?
Answer: Its value is “positive”.

Question: And the “Aberrations complex (C)” value ([1]; rhein 25 μg/ml)?
Answer: Its value is 1.

Question: What about the “Aberrations simple (S)” value ([1]; rhein 25 μg/ml) of the same compound?
Answer: The value was 1.

Question: What about the “Aberrations S + C” value ([1]; rhein 25 μg/ml, N.S.) of the same compound?
Answer: Its value is 2.

Question: And the “Aberrations complex (C)” value ([1]; rhein 50 μg/ml)?
Answer: The value was 3.

Question: What about the “Aberrations simple (S)” value ([1]; rhein 50 μg/ml) of the same compound?
Answer: Its value is 1.

Question: And the “Aberrations S + C” value ([1]; rhein 50 μg/ml, N.S.)?
Answer: Its value is 4.

Question: And the “Aberrations complex (C)” value ([1]; rhein 100 μg/ml)?
Answer: The value was 6.

Question: And the “Aberrations simple (S)” value ([1]; rhein 100 μg/ml)?
Answer: Its value is 3.

Question: What about the “Aberrations S + C” value ([1]; rhein 100 μg/ml, P < 0.05) of the same compound?
Answer: The value was 9.

Question: What about the “Aberrations complex (C)” value ([1]; rhein 200 μg/ml) of the same compound?
Answer: The value was 5.

Question: What about the “Aberrations simple (S)” value ([1]; rhein 200 μg/ml) of the same compound?
Answer: Its value is 3.

Question: What about the “Aberrations S + C” value ([1]; rhein 200 μg/ml, P < 0.05) of the same compound?
Answer: Its value is 8.

Question: What about the “inhibition of copper "scavenging" effect (in words)” value [2] of the same compound?
Answer: Its value is “inhibits said effect”.

Question: What about the “% Reduction (effect on copper "scavenging" action)” value ([2]; hypoxanthine/xanthine oxidase, cytochrome c) of the same compound?
Answer: Its value is 45%.

Question: And the “inhibition of formation and release of the superoxide anion” value [3]?
Answer: The value was “inhibits the formation and release of the superoxide anion”.

Question: And the “inhibition of elastase activity” value (elastase)?
Answer: The value was “inhibits”.

Question: And the “inhibition of cathepsin G activity” value (cathepsin G)?
Answer: The value was “inhibits”.

From patent publication US5856358A, “Mono- and disulfo-substituted anthraquinones and their use for the treatment of bone matrix disorders” (priority 1995, dated 1999)
